Test results: PubChem BioAssay (NCI)
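Values below derive from 48-hour exposures of cells grown in 96-well plates, with endpoints linearly interpolated between the two concentrations bracketing the appropriate inhibition level. Here, GI50 denotes the concentration required for 50% inhibition of growth. TGI marks complete inhibition of growth.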

Legend:
Experiment in all cases: inhibition of tumour cell growth, NCI panel, 48 h
[1] = test system: NCI-H460 lung
[2] = test system: HT29 colon
[3] = test system: CAKI-1 renal
[4] = test system: OVCAR-4 ovarian
[5] = test system: ACHN renal
[6] = test system: EKVX NSCLC
[7] = test system: DU-145 prostate
[8] = test system: SNB-75 CNS
[9] = test system: HS 578T breast
[10] = test system: TK-10 renal
[11] = test system: UACC-257 melanoma
[12] = test system: PC-3 prostate
[13] = test system: MDA-MB-231 breast
[14] = test system: SF-539 CNS
[15] = test system: K-562 leukemia
[16] = test system: KM12 colon
[17] = test system: COLO 205 colon
[18] = test system: BT-549 breast
[19] = test system: CCRF-CEM leukemia
[20] = test system: NCI-H522 lung
[21] = test system: HCC-2998 colon
[22] = test system: HOP-62 NSCLC
[23] = test system: HL-60(TB) leukemia
[24] = test system: UACC-62 melanoma
[25] = test system: OVCAR-3 ovarian
[26] = test system: SN12C renal
[27] = test system: NCI-H23 lung
[28] = test system: T-47D breast
[29] = test system: OVCAR-8 ovarian
[30] = test system: SW-620 colon
[31] = test system: RPMI-8226 leukemia
[32] = test system: A549 NSCLC
[33] = test system: SNB-19 CNS
[34] = test system: SK-MEL-28 melanoma
[35] = test system: NCI-H226 lung
[36] = test system: OVCAR-5 ovarian
[37] = test system: LOX IMVI melanoma
[38] = test system: HCT-116 colon
[39] = test system: HOP-92 NSCLC
[40] = test system: MCF7 breast
[41] = test system: SK-OV-3 ovarian
[42] = test system: SK-MEL-2 melanoma
[43] = test system: NCI/ADR-RES ovarian
[44] = test system: MOLT-4 leukemia
[45] = test system: SK-MEL-5 melanoma
[46] = test system: UO-31 renal
[47] = test system: MALME-3M melanoma
[48] = test system: 786-0 renal
[49] = test system: RXF 393 renal
[50] = test system: SR leukemia
[51] = test system: MDA-MB-435
[52] = test system: SF-295 CNS
[53] = test system: U251 CNS
[54] = test system: M14 melanoma
[55] = test system: A498 renal
[56] = test system: IGROV1 ovarian
[57] = test system: HCT-15 colon
[58] = test system: SF-268 CNS

SMILES: COc1ccccc1N1CCN(CCCOc2ccc(C(=O)/C=C3/C(=O)Nc4ccccc43)cc2)CC1
- GI50 [1]: 13.5 µM
- TGI [1]: 65.5 µM
- GI50 [2]: 3.13 µM
- TGI [2]: 12.2 µM
- GI50 [3]: 15.5 µM
- TGI [3]: > 62.8 µM
- GI50 [4]: 6.6 µM
- TGI [4]: 51.2 µM
- GI50 [5]: 15.9 µM
- TGI [5]: > 77.6 µM
- GI50 [6]: 7.34 µM
- TGI [6]: 41.2 µM
- GI50 [7]: 15 µM
- TGI [7]: 38.1 µM
- GI50 [8]: 14.9 µM
- TGI [8]: 43.9 µM
- GI50 [9]: 22.5 µM
- TGI [9]: > 52.7 µM
- GI50 [10]: 12.3 µM
- TGI [10]: > 67.7 µM
- GI50 [11]: 9.79 µM
- TGI [11]: 35.5 µM
- GI50 [12]: 12 µM
- TGI [12]: > 100 µM
- GI50 [13]: 9.63 µM
- TGI [13]: 37.6 µM
- GI50 [14]: 15.8 µM
- TGI [14]: 40.4 µM
- GI50 [15]: 3.51 µM
- TGI [15]: > 34.8 µM
- GI50 [16]: 8.2 µM
- TGI [16]: 24.8 µM
- GI50 [17]: 12.7 µM
- TGI [17]: 33.2 µM
- GI50 [18]: 4.42 µM
- TGI [18]: 16.1 µM
- GI50 [19]: 3.07 µM
- TGI [19]: > 43.2 µM
- GI50 [20]: 11.9 µM
- TGI [20]: 34.4 µM
- GI50 [21]: 13.9 µM
- TGI [21]: 32 µM
- GI50 [22]: 16.1 µM
- TGI [22]: 54.8 µM
- GI50 [23]: 6.09 µM
- TGI [23]: 27.2 µM
- GI50 [24]: 11.9 µM
- TGI [24]: 28.4 µM
- GI50 [25]: 7.37 µM
- TGI [25]: 42.3 µM
- GI50 [26]: 19.9 µM
- TGI [26]: > 100 µM
- GI50 [27]: 6.19 µM
- TGI [27]: 38.6 µM
- GI50 [28]: 4.73 µM
- TGI [28]: > 73 µM
- GI50 [29]: 12 µM
- TGI [29]: 55.5 µM
- GI50 [30]: 12.6 µM
- TGI [30]: 25.5 µM
- GI50 [31]: 2.6 µM
- TGI [31]: 28.6 µM
- GI50 [32]: 22.1 µM
- TGI [32]: > 100 µM
- GI50 [33]: 40.6 µM
- TGI [33]: > 100 µM
- GI50 [34]: 14.6 µM
- TGI [34]: 33.4 µM
- GI50 [35]: 14.3 µM
- TGI [35]: 65.7 µM
- GI50 [36]: 16.6 µM
- TGI [36]: 59.9 µM
- GI50 [37]: 11.8 µM
- TGI [37]: 26.4 µM
- GI50 [38]: 5.75 µM
- TGI [38]: 23.5 µM
- GI50 [39]: 2.59 µM
- TGI [39]: 22.2 µM
- GI50 [40]: 7.17 µM
- TGI [40]: 31.8 µM
- GI50 [41]: 28.2 µM
- TGI [41]: > 100 µM
- GI50 [42]: 5.54 µM
- TGI [42]: > 80.4 µM
- GI50 [43]: 9.53 µM
- TGI [43]: 40.9 µM
- GI50 [44]: 1.69 µM
- TGI [44]: 17.5 µM
- GI50 [45]: 6.9 µM
- TGI [45]: 18.4 µM
- GI50 [46]: 16.3 µM
- TGI [46]: > 100 µM
- GI50 [47]: 0.589 µM
- TGI [47]: 22.9 µM
- GI50 [48]: 19.7 µM
- TGI [48]: > 70 µM
- GI50 [49]: 11.2 µM
- TGI [49]: 27.5 µM
- GI50 [50]: 2.57 µM
- TGI [50]: 14.4 µM
- GI50 [51]: 13.6 µM
- TGI [51]: 52.3 µM
- GI50 [52]: 12.5 µM
- TGI [52]: 32.4 µM
- GI50 [53]: 15.4 µM
- TGI [53]: 63.7 µM
- GI50 [54]: 11 µM
- TGI [54]: 27 µM
- GI50 [55]: 19.3 µM
- TGI [55]: 70.5 µM
- GI50 [56]: 12.1 µM
- TGI [56]: 37.6 µM
- GI50 [57]: 7.88 µM
- TGI [57]: > 68.1 µM
- GI50 [58]: 16.8 µM
- TGI [58]: 47.3 µM
